From patent US5216014A, “Furo-coumarinsulfonamides as protein kinase C inhibitors” (Sphinx Pharmaceuticals Corporation, priority 1991, dated 1993) come the findings set out here.

Data set [1] can be described thus: Solubility remark in tumor cell growth test. The arrangement: key: *: indicates that the compound was too insoluble to test. The data set is classed as physicochemical. The settings on record: footnote mark in Table 6.
The target of data set [2] is cAMP dependent protein kinase (PKA). The data set is described as follows: cAMP Dependent Protein Kinase (PKA) Assay. Format: biochemical. The settings on record: 10 min; catalytic subunit of PKA. How it is done:
Compounds found to be inhibitors of protein kinase C activity are tested for inhibitory activity against protein kinase (PKA). This enzyme, like protein kinase C, plays an important role in cell-cell communication and is activated by a second messenger, cAMP. Secondary screening against PKA is useful for ascertaining the selectivity of the compounds of the invention. A cAMP dependent protein kinase assay utilizes a catalytic subunit of PKA (Sigma Chemical Company, St. Louis, Missouri) that is mixed with buffer before addition of the inhibitor in dimethylsulfoxide (DMSO). The assay is started by the addition of ^32 P-ATP and the reaction is allowed to proceed for 10 min before stopping with 25% trichloroacetic acid (TCA) and 1.0 mg/ml bovine serum albumin (BSA). The phosphorylated protein is isolated by filtration and the radioactivity is counted in a beta scintillation counter.
PKA assay results are shown in Table 5 in the column labeled PKA. […] The tested compounds of the invention are selective for protein kinase C, and have no effect on cAMP dependent protein kinase. This is seen by a comparison of Tables 3 and 5. […] Thus, the compounds of the invention should have minimal or no effect on the metabolic pathways associated with stimulation of protein kinase by cAMP.

For data set [3], the system named is human keratinocytes (NHEK cells). In words: Human Keratinocyte Inhibition (3H-thymidine incorporation). Format: cell-based. How it is done: Proliferating keratinocytes (NHEK cells purchased from Clonetics, Inc., San Diego, Calif.) in second passage were grown in Keratinocyte Growth Medium (KGM) (Clonetics, Inc.) Cells are trypsinized (0.025% trypsin, Clonetics), counted with a hemacytometer (Scientific Products), and seeded at a concentration of 2,500 cells/well in a 96 well microtiter plate. After allowing cells to attach to the surface overnight, the culture medium is aspirated and replaced with […] of fresh KGM. Test agents are evaluated and IC50,s are ^3 H-thymidine determined according to the ^3 H-thymidine incorporation procedures described as in Example 8. IC50 is the concentration of test compound required to inhibit fifty percent of the incorporation of H-thymidine into proliferating cells not exposed to test agent.

Data set [4] deals with protein kinase C. The data set is described as follows: Protein Kinase C Inhibition (PKC assay, histone H1 phosphorylation). Format: biochemical. The settings on record: 10 minutes; histone H1 substrate; rat brain enzyme. How it is done: The protein kinase C (PKC) assay is designed to duplicate the in vivo conditions required for protein kinase C function. Therefore, pH, salt and cofactor concentrations are similar to physiologic levels. A lysine rich histone H1 is used in the assay as the phosphorylation acceptor protein because it is readily available and serves as a good substrate for protein kinase C. Enzyme is prepared from rat brain and is purified to apparent homogeneity as determined by a single band on silver stained sodium dodeceyl sulfate (SDS)-polyacrylamide.
In the screening assay, phosphatidylserine (PS) and diacylglycerol (DAG) are co-sonicated to form unilamellar and multilamellar vesicles. The concentrations of lipids in the assay are suboptimal to maximize the detection potential for inhibitors. Potential inhibitor compounds are added to the assay in dimethylsulfoxide (DMSO) at three concentrations to give final inhibitor concentrations of 4.3, 43 and 218 μm, respectively. The assay is started with the addition of enzyme and stopped after 10 minutes by the addition of a 25% trichloroacetic acid (TCA) solution and 1.0 mg/ml bovine serum albumin (BSA). The radioactive histone product is retained and washed on glass fiber filters that allow the unreacted ^32 P-ATP to pass through. The amount of phosphorylation is determined by the radioactivity as measured in a scintillation counter. Controls are included in every assay to measure: background activity in the absence of enzyme, activity in the absence of lipids, and the maximum enzyme activity with saturating levels of the activator lipids.
HEPES is N-[2-hydroxyethyl] piperazine-N'-[2-ethanesulfonic acid] and EGTA is Ethylene-bis(oxyethylenenitrilo) tetraacetic acid.
Protein kinase C assay results are shown in Table 3 in the column labeled PKC. Results are shown as IC50, which is the concentration of test compound needed to inhibit 50% of the protein kinase C activity as compared with levels of protein kinase C activity in controls.

The test system of data set [5] is neutrophils. The data set is described as follows: Neutrophil Superoxide Anion (O2 -) Release Assay. The data set is classed as cell-based. To be noted: Homo sapiens, 0.5 h, PMA-stimulated, 37° C. for 30 min. Here is the method:
Neutrophils are isolated form whole blood collected from human volunteers. All reagent materials are obtained from Sigma Chemical Company with the exception of isotonic saline (Travenol Laboratories, Inc., Deerfield, Ill.) and lymphocyte separation medium (Organon Teknika, Durham, N.C.).
Whole blood is drawn and mixed with sodium heparin (final conc. 10 units/ml) to prevent clotting. An equal volume of dextran (3.0%) in isotonic saline is added, mixed, and allowed to settle for 30 min to bind red blood cells (RBC). Supernatant is removed, underlayered with lymphocyte separation medium and centrifuged for 40 min at 400 xg in a centrifuge (Beckman GPR, Norcross, Ga.). The pellet is alternately resuspended in 0.2% and 1.6% NaCl to lyse RBCs before washing with Hank's Balanced Salt Solution (HBSS). The washed pellet is resuspended in 10 ml HBSS and placed on ice before counting on a hemacytometer.
The neutrophil cell concentration is adjusted to 2×10^6 cells/ml with HBSS before adding 0.8 ml cells to 12×75 mm polypropylene test tubes (Fisher Scientific). Test agents are diluted to determine dose response and added at 10X final concentration at a volume of 0.1 ml/tube in duplicate. Then 10X concentrations of cytochrome C (15 mg/ml) with catalase (3000 units/ml) either alone or containing 25 ng/ml phorbol 12-myristate 13-acetate (PMA) are added at a volume of 0.1 ml/tube and incubated at 37° C. for 30 min before stopping the reaction by placing tubes on ice. Tubes are then centrifuged at 900 xg for 10 min, 0.5 ml supernatant is removed and added to 0.5 ml H2 O in a microcuvette. Optical density (OD) of cytochrome c is read in a spectrophotometer (Shimadzu) at 550 nm. The ΔOD of cytochrome c is obtained between PMA-stimulated and non-stimulated tubes, and the dose responses of the test agents are compared to the positive controls (which contain HBSS in place of test agents). PMA stimulates O2 production which reduces cytochrome c. Reducing cytochrome c increases its absorbance, and the change in OD of cytochrome c is proportional to the amount of O2 produced by PMA stimulation. Inhibition of the O2 - burst by test compounds of the invention is seen as a reduction in the change in optical density. Inhibition is expressed as IC50 μM and is the amount of test compound that will inhibit fifty percent of the PMA-stimulated respiratory burst, i.e. O2 production.

In data set [6] the test system is MCF-7. The data set is described as follows: Human Tumor Cell Growth Inhibition (3H-thymidine uptake). Format: cell-based. To be noted: MCF7; MCF-7 human breast tumor cell line; 18-24 hrs; read-out: MCF-7 (IC50, 3H-thymidine incorporation). An excerpt: MCF-7 a human breast tumor cell line and MCF-7/ADR an adriamycin resistant line of MCF-7 cells were obtained from the National Cancer Institute, Frederick, Md. CEM cells (ATCC accession number CCL 119) were obtained from the American Type Culture Collection, Rockville, Md.
Human tumor cells are trypsinized (0.05% trypsin, GIBCO), counted with a hemacytometer and seeded at a concentration of 10,000 cells/well in a 96 well microtiter plate. After allowing cells to attach to the surface overnight, the culture medium is aspirated and replaced with 100 μl of fresh medium. Test agents are diluted to determine dose response at 2X final concentration and added in quadruplicate at 100 μl/well to bring the total volume of each well to 200 μl. The microtiter plate is then incubated at 3 37° C. 5% CO2 overnight (18-24 hrs) before ^3 H-thymidine is added at a concentration of 0.5 μCi/well in 50 μl culture medium. The plate is incubated again for 4 hrs under the same conditions as above. Supernatant is then aspirated and 50 μl trypsin (0.05%, GIBCO) is added to each well. Cells are checked microscopically to determine detachment from surfaces, and plates are then harvested with a cell harvester (PHD, Cambridge Technology, Inc.) Filter papers corresponding to wells are placed in scintillation vials and counted to determine the amount of ^3 H-thymidine incorporated by the cells. […]

In the case of `COc1c2occc2c(S(=O)(=O)NCCCNCCCCNCCCNS(=O)(=O)c2c3ccoc3c(OC)c3oc(=O)ccc23)c2ccc(=O)oc12` [Compound 2], the “MCF-7: too insoluble to test” value in data set [1] is given as “*”. The IC50 in data set [2] was above 218 µM; in data set [3], 1.4 µM; in data set [4] it was 24 µM; in data set [5], above 10 µM.

`COc1c2occc2c(S(=O)(=O)NCCCNCCCNS(=O)(=O)c2c3ccoc3c(OC)c3oc(=O)ccc23)c2ccc(=O)oc12` [Compound 5] showed an IC50 in data set [4] of 33 µM.

For the compound `COc1c2occc2c(S(=O)(=O)NCCCN(C)CCCNS(=O)(=O)c2c3ccoc3c(OC)c3oc(=O)ccc23)c2ccc(=O)oc12` [Compound 4], the IC50 in data set [6] is 11 µM; in data set [2], above 218 µM; in data set [3], 9.5 µM; in data set [4], 17 µM; in data set [5] it was above 10 µM.

For `COc1c2occc2c(S(=O)(=O)NCCCCNCCCNS(=O)(=O)c2c3ccoc3c(OC)c3oc(=O)ccc23)c2ccc(=O)oc12` [Compound 3], the IC50 was 5.5 µM in data set [6]; above 218 µM in data set [2]; 15.4 µM in data set [3]; 21 µM in data set [4]; above 10 µM in data set [5].

On to `COc1c2occc2c(S(=O)(=O)NCCCNCCCCNCCCN)c2ccc(=O)oc12` [Compound 1, N-[3-[4-(3-amino-1-propyl)-amino-1-butyl]-amino-1-propyl]-s-methyl-furo[3,2-g]coumarin-5-sulfonamide], for which, in data set [1], the “MCF-7: too insoluble to test” value is “*”. Also, the IC50 in data set [2] was above 218 µM; in data set [3], 11.9 µM; in data set [4] it was 30 µM; in data set [5], above 10 µM.
